# Laboratory results as given in US9573970B2, “4-{4-[(1E)-4-(2,9-diazaspiro[5.5]undec-2-yl)but-1-en-1-yl]-2-methylbenzyl}-5-(propan-2-yl)-1H-pyrazol-3-yl beta-D glucopyranoside acetate” (Eli Lilly and Company, priority 2013, dated 2017).
# Key:
# [1] = test system: normal glycemic C57B1/6 mouse; assay: Glucose lowering effects in oral glucose tolerance test (OGTT); assay type: in vivo; conditions: for Glucose, 20 Minute: 20 min after dextrose; for Glucose, 20 Minute / Glucose, 40 Minute / Glucose, 60 Minute / Glucose, 120 Minute / Baseline Adjusted AUC (glucose) / Glucose, 0 Minute: mean ± SE; for Glucose, 40 Minute: 40 min after dextrose; for Glucose, 60 Minute: 60 min after dextrose; for Glucose, 120 Minute: 120 min after dextrose; for Baseline Adjusted AUC (glucose): OGTT; for Glucose, 0 Minute: baseline 3 h after compound, before dextrose 3 g/kg
# Experimental: The test compound is formulated by adding a vehicle of 1% hydroxyethylcellulose, 0.25% Tween® 80 w/antifoam 0.05% to preweighed test compound to make a 1 mg/ml solution. The mixture is probe sonicated for approximately 30 seconds. The resulting solution is used as a stock solution from which the lower concentration dose solutions are prepared by dilution with the vehicle.
# Single housed C57B1/6 mice are fasted overnight by removing access to food the late afternoon before test day. The following morning, the mice are weighed and a single fasting blood sample is taken by tail snip to measure glucose by glucometer (Roche AccuChek). Study groups (n=5) are determined based on fasted blood glucose and comprise preferably animals in the range of 80-100 mg/dl glucose.
# After grouping, the first mouse is orally gavaged with 10 ml/kg test compound preparation and a timer started. Each subsequent animal is dosed a minute and a half apart. Three hours after the first compound treatment is started, a baseline blood sample is taken for measuring glucose (from the first animal, via tail snip). The animal is then immediately given an oral dose of 50% dextrose (Hospira) at 3 g/kg. Blood samples are taken for glucose, exactly a minute and half apart, by tail vein so that blood is collected in each animal at 20, 40, 60 and 120 minutes after the dextrose dose.
# [2] = test system: male rats with STZ-induced diabetes; assay: Mixed meal tolerance test (MTT) in male rats with streptozotocin induced diabetes; assay type: in vivo, rat; conditions: for Glucose value, 0 min.: 30 min after compound, before meal; for Glucose value, 0 min. / Baseline Adjusted AUC (glucose) / Glucose value, 20 min. / Glucose value, 40 min. / Glucose value, 60 min. / Glucose value, 120 min.: mean ± SE; for Baseline Adjusted AUC (glucose): MTT
# Experimental: The test compound is formulated by adding a vehicle of 1% hydroxyethylcellulose (HEC), 0.25% Tween® 80 w/antifoam 0.05% to preweighed test compound to make a 2.5 mg/ml solution. The mixture is probe sonicated for approximately 30 seconds. The resulting solution is used as a stock solution, from which the lower concentration dose solutions are prepared by dilution with the vehicle. STZ, 45 mg/kg, is formulated by dissolving in 0.1M Citrate buffer in 3 ml aliquots and stored in the dark on ice, when not being administered. A high fat content mixed meal (Bio-Serv® Rodent Diet F3282 High Fat) comprising Fat Calories (60%), Carbohydrate Calories (26%) and Protein Calories (15%) is utilized. Single housed Sprague Dawley rats are allowed to acclimate for a period of 3 to 7 days.
# In an effort to ensure that the animals have not recently fed, STZ is administered in the afternoon, approximately six hours into the light cycle (lights on 6 am, lights off 6 pm). The animals are anesthetized with isoflurane and STZ is delivered via tail vein injection. Once animals regain consciousness, they are returned to housing and allowed to recover for 7 days.
# On the two days immediately prior to the meal tolerance test (MTT) all rats are given a small amount (2-4 g) of the F3282 diet, so they became acclimated to it prior to receiving it during the experiment. On the evening before the experiment, the rats are moved into clean cages and their food is removed. The following morning animals are weighed and a blood sample is taken by tail snip for glucose measurement (Abbott AlphaTRAK™ glucometers: code 29) Animals are grouped n=6 based on fasted body weight and glucose. Thirty minutes after the test compound is orally administered, two glucose measurements are collected. Then a five gram pellet of Bio-Serv® diet 3282 is given. After 20 minutes remaining food is taken away and weighed. Blood samples are taken at 20, 40, 60 and 120 minutes for glucose measurement.
# [3] = in words, Example 1 free base 10 and 30 mg/kg, Acarbose 60 mg/kg
smiles,measurement,setting,value
"Cc1cc(/C=C/CCN2CCCC3(CCNCC3)C2)ccc1Cc1c(O[C@@H]2O[C@H](CO)[C@@H](O)[C@H](O)[C@H]2O)n[nH]c1C(C)C [Example 1 (free base), 4-{4-[(1E)-4-(2,9-diazaspiro[5.5]undec-2-yl)but-1-en-1-yl]-2-methylbenzyl}-5-(propan-2-yl)-1H-pyrazol-3-yl beta-D-glucopyranoside]","Glucose, 20 Minute",[1]; 0.3 mg/kg oral,185 ± 13.7 mg/dL
same,"Glucose, 40 Minute",[1]; 0.3 mg/kg oral,197 ± 14.7 mg/dL
same,"Glucose, 60 Minute",[1]; 0.3 mg/kg oral,164 ± 6.3 mg/dL
same,"Glucose, 120 Minute",[1]; 0.3 mg/kg oral,121 ± 11.8 mg/dL
same,Baseline Adjusted AUC (glucose),"[1]; 0.3 mg/kg oral, in mg·min/dL",5400 ± 519^
same,"Glucose, 0 Minute",[1]; 0.3 mg/kg oral,78 ± 4.2 mg/dL
same,"Glucose, 20 Minute",[1]; 1 mg/kg oral,147 ± 8.3 mg/dL
same,"Glucose, 40 Minute",[1]; 1 mg/kg oral,171 ± 11.1 mg/dL
same,"Glucose, 60 Minute",[1]; 1 mg/kg oral,162 ± 5.8 mg/dL
same,"Glucose, 120 Minute",[1]; 1 mg/kg oral,109 ± 7.3 mg/dL
same,Baseline Adjusted AUC (glucose),"[1]; 1 mg/kg oral, in mg·min/dL",4158 ± 374^
same,"Glucose, 0 Minute",[1]; 1 mg/kg oral,76 ± 3.3 mg/dL
same,"Glucose, 20 Minute",[1]; 3 mg/kg oral,133 ± 7.1 mg/dL
same,"Glucose, 40 Minute",[1]; 3 mg/kg oral,150 ± 7.5 mg/dL
same,"Glucose, 60 Minute",[1]; 3 mg/kg oral,155 ± 7.2 mg/dL
same,"Glucose, 120 Minute",[1]; 3 mg/kg oral,115 ± 10 mg/dL
same,Baseline Adjusted AUC (glucose),[1]; 3 mg/kg oral,3606 ± 421
same,"Glucose, 0 Minute",[1]; 3 mg/kg oral,72 ± 2.6 mg/dL
same,"Glucose, 20 Minute",[1]; 10 mg/kg oral,124 ± 1.2 mg/dL
same,"Glucose, 40 Minute",[1]; 10 mg/kg oral,137 ± 5.4 mg/dL
same,"Glucose, 60 Minute",[1]; 10 mg/kg oral,138 ± 6.1 mg/dL
same,"Glucose, 120 Minute",[1]; 10 mg/kg oral,114 ± 4.3 mg/dL
same,Baseline Adjusted AUC (glucose),[1]; 10 mg/kg oral,2693 ± 309
same,"Glucose, 0 Minute",[1]; 10 mg/kg oral,78 ± 5.4 mg/dL
same,Baseline adjusted glucose AUC during an OGTT,"[1]; 0.3-10 mg/kg oral, in words",dose dependent decrease in baseline adjusted glucose area under the curve (AUC)
same,Glucose excursion following an oral bolus of 50% dextrose,"[1]; 0.3-10 mg/kg oral, in words",dose dependent decrease in the glucose excursion
same,"Glucose value, 0 min.",[2]; 10 mg/kg oral,139 ± 16.1 mg/dL
same,Baseline Adjusted AUC (glucose),[2]; 10 mg/kg oral,22432 ± 2234
same,"Glucose value, 20 min.",[2]; 10 mg/kg oral,221.2 ± 26.3 mg/dL
same,"Glucose value, 40 min.",[2]; 10 mg/kg oral,268.7 ± 29 mg/dL
same,"Glucose value, 60 min.",[2]; 10 mg/kg oral,330 ± 36.7 mg/dL
same,"Glucose value, 120 min.",[2]; 10 mg/kg oral,490.8 ± 39.2 mg/dL
same,"Glucose value, 0 min.",[2]; 30 mg/kg oral,137.4 ± 26.9 mg/dL
same,Baseline Adjusted AUC (glucose),[2]; 30 mg/kg oral,14649 ± 3673
same,"Glucose value, 20 min.",[2]; 30 mg/kg oral,195.4 ± 44.8 mg/dL
same,"Glucose value, 40 min.",[2]; 30 mg/kg oral,232 ± 52.2 mg/dL
same,"Glucose value, 60 min.",[2]; 30 mg/kg oral,263.9 ± 62.2 mg/dL
same,"Glucose value, 120 min.",[2]; 30 mg/kg oral,355.3 ± 73.2 mg/dL
same,Glucose baseline adjusted AUCs in the MTT,[2]; [3],dose dependent decrease in glucose baseline adjusted AUCs
same,Glucose in the MTT compared to the vehicle controls,[2]; [3],significantly and dose dependently decreases glucose
